This data set can be described thus: solvent given as SMILES.

Consider `CCCCN(CCCC)c1ccc(C#Cc2cc(C#Cc3ccc(N(CCCC)CCCC)cc3)c(C#Cc3cc(C(F)(F)F)cc(C(F)(F)F)c3)cc2C#Cc2cc(C(F)(F)F)cc(C(F)(F)F)c2)cc1`, for which the emission maximum by setting is: (in ClCCl) 552 nm; (in c1ccccc1) 514 nm.
The compound `COc1ccc(C(=O)OCc2c(C)c(=O)n3c(=O)c(C)c(C)n23)cc1` had an emission maximum (in CCO) of 461 nm.
Same read-out and setting: with `c1ccc(C2c3ccccc3-c3ccccc32)cc1` the figure was 305 nm.
`O=C(c1ccncc1)c1ccc(-n2c3ccc(-n4c5ccccc5c5ccccc54)cc3c3cc(-n4c5ccccc5c5ccccc54)ccc32)cc1`: the emission maximum reads like this: (in C1CCOC1) 532.75 nm; (in Cc1ccccc1) 481.09 nm; (in c1cc(-c2cccc(-n3c4ccccc4c4ccccc43)c2)cc(-n2c3ccccc3c3ccccc32)c1) 487.5 nm.
For the compound `CC1=C(c2ccccc2)C(C)=[N+]2C1=C(c1c(-c3ccccn3)nc3ccccn13)c1c(C)c(-c3ccccc3)c(C)n1[B-]2(F)F`, the emission maximum (in ClCCl) is on record as 585 nm.
On to `COc1cc(OC)cc(C2=[O+][B-](F)(F)OC(c3ccccc3)=C2)c1`, for which the emission maximum (in CC#N) is recorded as 602.29 nm; the emission maximum (in CC(C)=O) was 590.78 nm; the emission maximum (in CCCCCC) was determined as 446.17 nm; the emission maximum (in Cc1ccccc1) worked out at 505.51 nm; the emission maximum (in ClCCl) is on record as 554 nm.
Under “in C1CCCCC1”, `CCCC1(CCC)c2cc(-c3ccc4c(c3)C(CCC)(CCC)c3cc(C(C)(C)CC)ccc3-4)ccc2-c2ccc(-c3ccc4c(c3)C(CCC)(CCC)c3cc(C(C)(C)CC)ccc3-4)cc21` yielded an emission maximum of 400 nm.
As to `CCOC(=O)C1=C(C(=O)OCC)C2(c3ccccc3-c3ccccc32)[C@@H](c2ccccc2)C=C2c3cc(OC)c(OC)cc3CCN21`, the emission maximum (in ClCCl) was 430 nm.
As to `C[Si](C)(C)[Si](C)(C)c1cccc2cc3ccccc3cc12`, the emission maximum is, setting by setting: (in C1CCCCC1) 410 nm; (in CC#N) 411 nm.
For `CCCN1/C(=C/C=C(/C=C/C2=[N+](CCC)c3ccccc3C2(C)C)c2ccncc2)C(C)(C)c2ccccc21`, the emission maximum (in CO) is 648 nm, the emission maximum (in CS(C)=O) turned out to be 655 nm and the emission maximum (in O) was 658 nm.
`N#Cc1c(N2CCCCC2)cc(-c2ccc3ccc4cccc5ccc2c3c45)c2c1C(=O)c1ccccc1-2` had an emission maximum (in C1CCOC1) of 473 nm.
Turning to `c1ccc(-n2c3c(c4c2-c2ccccc2C42c4ccccc4-c4ccccc42)C2(c4ccccc4-c4ccccc42)c2ccccc2-3)cc1`, where the note is “in C1CCOC1”, the emission maximum came to 408 nm.
With `CCC1(CC)c2cc(-c3cccs3)ccc2-c2c1c1c(c3c2C(CC)(CC)c2cc(-c4cccs4)ccc2-3)C(CC)(CC)c2cc(-c3cccs3)ccc2-1`, the emission maximum (in C1CCOC1) was found to be 385 nm.
As for `O=c1cc[nH]c(=O)[nH]1`, the emission maximum (in CC#N) was 311 nm.
For `CN(C)c1ccc(C2=Nc3ccc4c(C(F)(F)F)cc(C(F)(F)F)nc4[n+]3[B-](F)(F)O2)cc1`, the emission maximum (in ClCCl) was determined as 642 nm.
With `CCCCCCc1ccc2c3c(ccc2c1)O[B-](F)(F)[N+](c1ccc([N+]2=Cc4c(ccc5cc(CCCCCC)ccc45)O[B-]2(F)F)cc1)=C3`, the emission maximum was 505 nm (in C1CCOC1), 502 nm (in CC#N), 508 nm (in Cc1ccccc1) and 507 nm (in ClCCl).
`C1=C2C3=C(C4=[N+]2[B-]2(Oc5ccccc54)Oc4ccccc4-c4c5c(c1n42)C1CCC5CC1)C1CCC3CC1` (stereo unspecified) gave an emission maximum (in ClCCl) of 645 nm.
Under “in ClCCl”, `O=C(Nc1ccccc1[N+](=O)[O-])c1ccc2oc(-c3cc4ccccc4oc3=O)nc2c1` showed an emission maximum of 443 nm.
For the compound `c1cnc(-c2c3ccccc3c(-c3cncnc3)c3ccccc23)nc1`, the emission maximum is given as 433 nm (in CCO) and 436 nm (in ClCCl).
In turn, `Nc1ccc2c3c(cccc13)C(=O)c1ccccc1-2` had an emission maximum (in CC#N) of 626.17 nm; an emission maximum (in CC(C)=O) of 610.13 nm; an emission maximum (in CC(C)O) of 664.89 nm; an emission maximum (in CCCCOCCCC) of 570.13 nm; an emission maximum (in CCOC(C)=O) of 592.07 nm; an emission maximum (in CCOCC) of 585.14 nm. This compound registered an emission maximum (in CO) of 667.11 nm; an emission maximum (in Cc1ccccc1) of 569.15 nm; an emission maximum (in Clc1ccccc1) of 579.04 nm; an emission maximum (in N#Cc1ccccc1) of 610.13 nm; an emission maximum (in O=C1CCCCC1) of 610.13 nm.
`O=CN1N=C(c2ccc(Br)cc2)C[C@@H]1c1ccccc1`: the emission maximum by setting is: (in C1CCCCC1) 348 nm; (in C1COCCO1) 352 nm; (in CC#N) 351 nm; (in CCO) 345 nm; (in CCOC(C)=O) 350 nm; (in CO) 350 nm. The emission maximum stood at 356 nm (in CS(C)=O), 349 nm (in Cc1ccccc1) and 351 nm (in ClC(Cl)(Cl)Cl).
`C/C(=N\Nc1ccc(C#N)cc1)c1cccc(/C(C)=N/Nc2ccc(C#N)cc2)c1`: the emission maximum reads like this: (in CC#N) 492 nm; (in CCCCCC) 467 nm; (in CO) 525 nm; (in CS(C)=O) 504 nm; (in ClC(Cl)Cl) 476 nm.
Under “in ClC(Cl)Cl”, `C[N+]1=c2cc3c(cc2C(C)(C)CC1)=C(c1ccccc1C(=O)O)c1cc2c(cc1O3)Oc1cc3c(cc1=C2c1ccccc1C(=O)O)C(C)(C)CC[N+]=3C` had an emission maximum of 612 nm.
Still for that read-out and setting: to `Cc1ccc2nc3c4c(c5ccccc5c3nc2c1)OC(=O)CC4c1ccc(F)cc1` (stereo unspecified) belongs 431 nm.
In the case of `COc1ccc2c(c1)C(=O)c1cc(OC)cc(OC)c1-2`, the emission maximum was 570 nm (in C1CCCCC1) and 628 nm (in CC#N).
In the case of `C(=C\c1ccnc2ccccc12)/c1c2ccccc2cc2ccccc12`, the emission maximum reads like this: (in CC1CCCCC1) 498 nm; (in CC#N) 530 nm.
In the case of `CC(C)Nc1cc2c(cc1F)c(=O)c1cc(F)c(NC(C)C)cc1n2C(C)C`, the emission maximum (in CCO) came out at 423 nm.
In turn, `c1ccc(N(c2ccccc2)c2ccc(-c3cnc(-c4ccncc4)s3)cc2)cc1` displayed an emission maximum (in CO) of 566 nm.
Under “in ClCCl”, `Cc1cccc(-c2c3ccccc3c(-c3cccc(C)n3)c3ccccc23)n1` gave an emission maximum of 428 nm.
Where the note is “in Cc1ccccc1”, `CC1(C)c2ccccc2N2c3ccccc3C3(c4cc(C#N)ccc4-c4ccc(C#N)cc43)c3cccc1c32` came in with an emission maximum of 485.37 nm.
On to `Cc1ccc(-n2c3ccccc3c3cc(C(=C(C#N)C#N)c4ccccc4)ccc32)cc1`, for which the emission maximum is given as 527 nm (in C1CCOC1); 545 nm (in CC#N); 567 nm (in CC(C)=O); 540 nm (in CCOC(C)=O); 583 nm (in CO); 591 nm (in CS(C)=O). Besides, the emission maximum by setting is: (in Cc1ccccc1) 517 nm; (in ClC(Cl)Cl) 546 nm.
On to `Cc1nc2c(c[n+]1C)CN1C(=O)N([C@H]3O[C@@H](CO)[C@H](O)[C@@H]3O)C=CC1=N2`, for which the emission maximum (in CC#N) was determined as 416 nm; the emission maximum (in CC(C)=O) came out at 418 nm; the emission maximum (in CCCCO) was 417 nm; the emission maximum (in CCCO) was determined as 417 nm; the emission maximum (in CCO) amounted to 417 nm; the emission maximum (in CO) is on record as 417 nm. The emission maximum is reported as 414 nm (in O), 417 nm (in [2H]OC), 417 nm (in [2H]OCC) and 414 nm (in [2H]O[2H]).
Take `Cc1cc(C)cc(NC(=O)c2sc(Br)nc2C)c1`: the emission maximum is recorded as 413.2 nm (in C1CCOC1); 399 nm (in CC#N); 400.6 nm (in CCCCCC); 405.5 nm (in CCOC(C)=O); 398.2 nm (in CN(C)C=O); 402 nm (in CO). Besides, the emission maximum by setting is: (in CS(C)=O) 402.5 nm; (in ClC(Cl)Cl) 411.5 nm.
Regarding `C(=C\c1cc[n+](Cc2ccccc2)cc1)/c1cc[n+](Cc2ccccc2)cc1`, the emission maximum (in CC#N) is reported as 426 nm.
For `Cc1cc(-c2nc(-c3ccccc3)nc(-c3ccccc3)n2)ccc1-n1c2ccccc2c2cc3c(cc21)C1c2ccccc2C3c2ccccc21`, the emission maximum came to 431 nm (in Cc1ccccc1) and 451 nm (in O=P(c1ccccc1)(c1ccccc1)c1ccccc1Oc1ccccc1P(=O)(c1ccccc1)c1ccccc1).
For the compound `c1ccc([B-]2(c3ccccc3)Oc3ccc4ccccc4c3-c3c4ccccc4cc[n+]32)cc1`, the emission maximum (in Cc1ccccc1) came out at 522 nm.
As for `F[B-]1(F)n2c(cc3oc4ccccc4c32)C(c2ccc(I)cc2)=C2C=c3oc4ccccc4c3=[N+]21`, the emission maximum (in ClC(Cl)Cl) amounted to 647 nm.
As for `CCCCCCCCCCCCOc1cc(/C=C/c2ccc3c(c2)C(CC)(CC)c2cc(N4c5ccccc5Sc5ccccc54)ccc2-3)c(OCCCCCCCCCCCC)cc1/C=C/c1ccc2c(c1)C(CC)(CC)c1cc(N3c4ccccc4Sc4ccccc43)ccc1-2`, the emission maximum by setting is: (in C1CCOC1) 474 nm; (in CC#N) 473 nm; (in CCCCCC) 477 nm; (in Cc1ccccc1) 468 nm; (in ClCCl) 477 nm.
Consider `F[B-]1(F)n2cccc2C(c2ccccc2)=C2C=CC=[N+]21`, for which the emission maximum runs as follows: (in Cc1ccccc1) 521 nm; (in ClCCl) 522 nm.
Take `Clc1nc(Nc2ccccc2)nc(Nc2ccc3c4cccc5cccc(c6cccc2c63)c54)n1`: the emission maximum amounted to 478 nm (in C1COCCO1), 477 nm (in CC#N), 476 nm (in CCCCOCCCC) and 475 nm (in CCOC(C)=O).
`S=P1(c2ccccc2)c2cccc3ccc4ccc1n4c23` (stereo unspecified) yielded an emission maximum (in ClCCl) of 490 nm.
Consider `COc1ccc(-c2csc(/C(C#N)=C/c3ccc(C#N)cc3)n2)cc1`, for which the emission maximum came to 561 nm (in CC#N); 555 nm (in CCO); 570 nm (in CN(C)C=O); 519 nm (in Cc1ccccc1); 554 nm (in ClCCl).

Values taken from the Deep4Chem optical property database.
